Source: ChEMBL document CHEMBL2073941, “TP-search Transporter Database” (Gastroenterology, 1994)

Biological target: T1, OAT1 (Solute carrier family 22 member 6) (Homo sapiens, UniProt Q4U2R8)
T1 sequence (Q4U2R8 whole entry): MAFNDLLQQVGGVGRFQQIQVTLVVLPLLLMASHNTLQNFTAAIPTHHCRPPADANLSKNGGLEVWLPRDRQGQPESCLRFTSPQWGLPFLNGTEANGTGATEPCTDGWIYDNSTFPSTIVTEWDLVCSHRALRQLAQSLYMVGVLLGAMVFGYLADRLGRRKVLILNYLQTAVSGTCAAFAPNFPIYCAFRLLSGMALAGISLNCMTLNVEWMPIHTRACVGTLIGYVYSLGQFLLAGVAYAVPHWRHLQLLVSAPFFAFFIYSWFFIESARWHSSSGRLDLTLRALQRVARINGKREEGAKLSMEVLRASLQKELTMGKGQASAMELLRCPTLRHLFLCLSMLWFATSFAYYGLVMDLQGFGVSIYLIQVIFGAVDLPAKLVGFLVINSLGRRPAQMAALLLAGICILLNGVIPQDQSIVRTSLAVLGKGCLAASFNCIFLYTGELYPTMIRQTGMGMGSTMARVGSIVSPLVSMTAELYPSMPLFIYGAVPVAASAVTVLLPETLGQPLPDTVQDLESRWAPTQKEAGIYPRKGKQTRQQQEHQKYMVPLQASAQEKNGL
Test: TP_TRANSPORTER: inhibition of Urate uptake (Urate: 300 uM, DIDS: 2000 uM) in OAT1-expressing S2 cells
Format: functional, cell-based
Set-up: scale not given: the % may be the effect or the level left
Conditions: S2 cells that express OAT1, probe urate (300 uM); read-out: Activity

O=S(=O)(O)c1cc(N=C=S)ccc1/C=C/c1ccc(NC=S)cc1S(=O)(=O)O
activity at 2000 µM: 64.2%
